Source: patent publication US20260053790A1, “TREATMENTS FOR CONDITIONS INVOLVING INCREASED IL-6 LEVELS” (X4 Pharmaceuticals, Inc., priority 2022, published 2026)

Columns and labels:
WM cells [1] = experiment: Soluble IL-6 treatment of WM cells in the absence of BMSC: CXCR4 expression and IgM secretion; assay type: cell-based; conditions: blockade of IL-6/IL6R/STAT3 axis, FIG. 3
Source text: FIG. 3: Even in the Absence of BMSC, Soluble IL-6 Upregulates CXCR4 Expression & IgM Secretion in WM Cells; which is Prevented by Blockade of IL-6/IL6R/STAT3 Axis. BP-1-102 is a STAT3 inhibitor.

[2] = Solubility of mavorixafor by pH and in water; assay type: physicochemical
Protocol: Mavorixafor (formerly designated X4P-001 and AMD11070) is a CXCR4 antagonist, with molecular formula C21H27N5; molecular weight 349.48 amu; and appearance as a white to pale yellow solid. Solubility: freely soluble in the pH range 3.0 to 8.0 (>100 mg/mL), sparingly soluble at pH 9.0 (10.7 mg/mL) and slightly soluble at pH 10.0 (2.0 mg/mL). […] Melting point: 108.9° C.

WM cells [3] = experiment: Co-culture of BMSC with WM cells: BM stroma-induced IgM hypersecretion; assay type: cell-based; conditions: FIG. 2
IL-6 = IL-6 overexpression and hypersecretion (co-culture of BMSC with WM cells); assay type: cell-based; conditions: mavorixafor as a single agent
in vivo = conditions: Terminal half-life
Protocol: In certain embodiments, the dosage composition may be provided twice a day in divided dosage, approximately 12 hours apart. In other embodiments, the dosage composition may be provided once daily. […] Dosage for oral administration may be from about 100 mg to about 1200 mg once or twice per day.

Structure (SMILES) | Soluble IL-6-induced upregulation of CXCR4 expression in WM cells (WM cells [1]) | Soluble IL-6-induced upregulation of IgM secretion in WM cells (WM cells [1]) | solubility ([2]; aqueous buffer, pH range 3.0 to 8.0 (freely soluble)) [mg/mL] | Solubility in water ([2]; water) | Bone marrow stroma-induced IgM hypersecretion in WM cells (WM cells [3]) | Overexpression and hypersecretion of IL-6 (IL-6) | half-life (in vivo) [h]
CN(CC(=O)N(Cc1ccc(C2CCCCC2)cc1)c1ccc(C(=O)O)c(O)c1)S(=O)(=O)c1c(F)c(F)c(F)c(F)c1F [BP-1-102] | Prevented | Prevented |  |  |  |  | 
NCCCCN(Cc1nc2ccccc2[nH]1)[C@H]1CCCc2cccnc21 [Mavorixafor, mavorixafor] |  |  | > 100 | only slightly soluble | blocks | significantly reduces | 12 to 24
